Each structure is given as a SMILES string.

Our source for the IC50 values is patent publication US6403644B1, “Method of treating disease with sulfonylamino acid derivatives” (Ono Pharmaceutical Co., Ltd., priority 1995, dated 2002).

For the experiment, the target named is T1, gelatinase A (Homo sapiens, UniProt P08253).
T1 construct: endogenous in cells; host or cells: human normal skin dermal fibroblasts (HNDF)
T1 sequence (P08253 110-660): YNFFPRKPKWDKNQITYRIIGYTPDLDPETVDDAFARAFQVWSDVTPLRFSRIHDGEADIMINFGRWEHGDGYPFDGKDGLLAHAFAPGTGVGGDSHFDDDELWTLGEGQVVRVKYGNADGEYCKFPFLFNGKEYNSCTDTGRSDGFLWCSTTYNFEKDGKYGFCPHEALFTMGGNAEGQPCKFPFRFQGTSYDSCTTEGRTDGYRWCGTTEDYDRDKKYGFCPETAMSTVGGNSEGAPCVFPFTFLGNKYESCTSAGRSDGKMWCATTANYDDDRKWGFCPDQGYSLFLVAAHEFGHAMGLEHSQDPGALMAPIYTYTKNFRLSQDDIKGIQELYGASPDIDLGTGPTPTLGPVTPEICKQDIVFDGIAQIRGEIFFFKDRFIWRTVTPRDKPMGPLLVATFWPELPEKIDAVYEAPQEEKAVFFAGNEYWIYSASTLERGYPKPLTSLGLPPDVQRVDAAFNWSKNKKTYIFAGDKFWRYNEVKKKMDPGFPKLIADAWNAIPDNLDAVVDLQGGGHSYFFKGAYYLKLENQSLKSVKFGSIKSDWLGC
As to the kind of experiment: Inhibitory activity against gelatinase A (FITC-labeled gelatin degradation). As to conditions: progelatinase A from human normal skin dermal fibroblasts (HNDF), APMA-activated, 2 hours at 37° C., read-out: IC50 for inhibition of gelatinase A activity. It is filed as biochemical. How it is done:
The potency of inhibitory activity against each matrix metalloproteinases is confirmed as below. The IC50 value for inhibition of gelatinase A activity is determined as follows.
(1) Inhibitory activity against gelatinase A
The progelatinase A (7 μl; in assay buffer (90 μl)) was purified from human normal skin dermal fibroblasts (HNDF). It was activated by the addition of 10 mM of p-aminophenylmercuric acetate (APMA) (10 μl) for 1 hour at 37° C.
The solution of activated gelatinase A (7 μl/tube, 98 μl) was mixed with various concentrations of the test compound or dimethylsulfoxide (2 μl) and gelatin (100 μl) labeled with 0.05% fluorescein isothiocyanate (FITC) and incubated for 2 hours at 37° C. The reaction was terminated by the addition of 0.1M Tris-HCl (pH9.5) containing 94.7% ethanol (750 μl). The mixture was stirred and then allowed to stand for 30 minutes at 0° C. The mixture was centrifuged for 30 minutes at 900×g. The IC50 was determined by measuring the fluorescent intensity in supernatant (Ex=495 nm, and Em=520 nm).

Take `CCCCCc1ccc(C(=O)Nc2ccc(S(=O)(=O)N[C@H](Cc3ccccc3)C(=O)O)cc2)cc1` [Example 2(63), N-[[4-(4-Pentylbenzoylamino)phenyl]sulfonyl]-D-phenylalanine]: the IC50 was determined as 2.3 nM.

As for `Cc1ccc(C(=O)Nc2ccc(S(=O)(=O)NCC(=O)O)cc2)cc1` [compound 2], the IC50 worked out at 110 nM.

On to `O=C(O)CNS(=O)(=O)c1ccc(NC(=O)c2ccccc2)cc1` [Example 2(10), N-[[4-(Benzoylamino)phenyl]sulfonyl]glycine], for which the IC50 was determined as 660 nM.

Turning to `CCCCCc1ccc(C(=O)Nc2ccc(S(=O)(=O)NCC(=O)O)cc2)cc1` [Example 2(35), N-[[4-(4-Pentylbenzoylamino)phenyl]sulfonyl]glycine], the IC50 was found to be 13 nM.

Regarding `Cc1ccc(C(=O)Nc2ccc(S(=O)(=O)N[C@H](Cc3c[nH]c4ccccc34)C(=O)O)cc2)cc1` [Example 3(13), N-[[4-(p-Toluoylamino)phenyl]sulfonyl]-D-tryptophan], the IC50 was 2.7 nM.

Regarding `N=C(N)c1ccc(OC(=O)c2ccc(S(=O)(=O)N[C@@H](Cc3ccccc3)C(=O)O)cc2)cc1` [Example 10(1), N-[[4-(4-Amidinophenoxycarbonyl)phenyl]sulfonyl]-L-phenylalanine methansulfonate], the IC50 is 700 nM.

As to `O=C(O)CNS(=O)(=O)c1ccc(OC(=O)c2ccccc2)cc1` [compound 6], the IC50 is 420 nM.

As to `O=C(O)CNS(=O)(=O)c1ccc(NC(=O)c2ccc(F)cc2)cc1` [Example 2(11), N-[[4-(4-Fluorobenzoylamino)phenyl]sulfonyl]glycine], the IC50 was determined as 800 nM.
